Columns and labels:
[1] = system: human colon cancer cell strain HT29; assay: Cell growth inhibition test (MTT), HT29; type: cell-based; conditions: HT-29, 72 h, HT29, 3 days culture, read-out: concentration exhibiting anti-cell effect (GI50)
In short: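 Living cells were counted by MTT reduction (4 h; formazan dissolved in DMSO, A540) after 3-day compound exposure at 37° C, 5% CO2. Seeding was 5000 (AN3CA), 1000 (IGROV1) or 5000 (HT29) cells/well, dosing the following day. Growth rate T/C % used pre-dose baseline; GI50 interpolated at 50%.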

PI3Kα = PI3Kα (Homo sapiens, UniProt P42336); assay: PI3K kinase activity inhibition assay; type: biochemical; conditions: Kinase-Glo Plus ATP detection, read-out: IC50 against PI3K
Chain of PI3Kα (P42336 whole entry, species assumed): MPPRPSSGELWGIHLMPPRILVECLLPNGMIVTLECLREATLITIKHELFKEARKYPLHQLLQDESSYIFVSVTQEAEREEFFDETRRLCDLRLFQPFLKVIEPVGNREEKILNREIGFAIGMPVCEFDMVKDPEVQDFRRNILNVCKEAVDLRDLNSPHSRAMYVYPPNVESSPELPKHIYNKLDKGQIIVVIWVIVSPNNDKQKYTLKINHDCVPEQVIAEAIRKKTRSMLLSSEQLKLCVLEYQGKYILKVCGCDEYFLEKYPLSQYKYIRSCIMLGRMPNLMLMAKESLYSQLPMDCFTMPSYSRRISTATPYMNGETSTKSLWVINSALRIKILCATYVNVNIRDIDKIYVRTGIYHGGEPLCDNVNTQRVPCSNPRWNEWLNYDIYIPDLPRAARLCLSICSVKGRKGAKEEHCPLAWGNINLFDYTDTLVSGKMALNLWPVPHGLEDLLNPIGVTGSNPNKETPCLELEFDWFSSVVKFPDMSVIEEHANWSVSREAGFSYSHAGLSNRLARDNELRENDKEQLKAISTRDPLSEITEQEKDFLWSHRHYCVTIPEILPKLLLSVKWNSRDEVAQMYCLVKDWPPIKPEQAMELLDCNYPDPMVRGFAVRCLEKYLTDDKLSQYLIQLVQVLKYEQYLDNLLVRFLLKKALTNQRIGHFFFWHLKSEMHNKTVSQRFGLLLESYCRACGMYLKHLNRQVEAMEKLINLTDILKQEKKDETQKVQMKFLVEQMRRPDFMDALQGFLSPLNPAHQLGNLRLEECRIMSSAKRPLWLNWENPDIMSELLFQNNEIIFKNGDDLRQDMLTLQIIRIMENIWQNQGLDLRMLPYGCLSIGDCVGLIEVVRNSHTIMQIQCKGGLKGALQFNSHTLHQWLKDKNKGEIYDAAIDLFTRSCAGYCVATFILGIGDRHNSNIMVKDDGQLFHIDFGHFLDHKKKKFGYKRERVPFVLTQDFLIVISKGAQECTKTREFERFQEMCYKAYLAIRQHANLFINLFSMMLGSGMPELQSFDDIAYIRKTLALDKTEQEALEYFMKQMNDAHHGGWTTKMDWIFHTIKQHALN
Chain of PI3Kα (P27986 whole entry partner, species assumed): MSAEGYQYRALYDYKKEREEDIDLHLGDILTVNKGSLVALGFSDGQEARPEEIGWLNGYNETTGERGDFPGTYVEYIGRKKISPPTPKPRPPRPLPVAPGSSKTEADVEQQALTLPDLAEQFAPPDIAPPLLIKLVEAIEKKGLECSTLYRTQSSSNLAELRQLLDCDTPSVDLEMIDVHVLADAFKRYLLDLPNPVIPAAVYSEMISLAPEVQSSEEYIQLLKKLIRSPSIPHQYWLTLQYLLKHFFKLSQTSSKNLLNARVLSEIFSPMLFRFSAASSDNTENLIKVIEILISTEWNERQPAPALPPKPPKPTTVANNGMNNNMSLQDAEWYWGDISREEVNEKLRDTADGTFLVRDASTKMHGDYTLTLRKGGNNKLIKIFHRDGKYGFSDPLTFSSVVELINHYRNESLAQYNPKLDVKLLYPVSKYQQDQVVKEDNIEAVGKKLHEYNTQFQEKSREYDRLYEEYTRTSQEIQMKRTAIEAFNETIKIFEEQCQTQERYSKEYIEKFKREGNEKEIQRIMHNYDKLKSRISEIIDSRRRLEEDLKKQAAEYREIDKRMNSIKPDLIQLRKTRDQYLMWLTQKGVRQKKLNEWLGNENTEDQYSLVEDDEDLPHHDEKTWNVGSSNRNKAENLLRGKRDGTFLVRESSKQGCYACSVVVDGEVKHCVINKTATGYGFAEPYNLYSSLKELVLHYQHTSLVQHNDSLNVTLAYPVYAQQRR
In short: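 PI3Kα (50 nM solution) was reacted with 30 μM ATP and 45 μM PIP2 solutions, each in HEPES pH 7.4 with MgCl2 and DTT, for 2 h at room temperature. Remaining ATP was measured by Kinase-Glo Plus luminescence, and inhibition was derived from ATP consumed. IC50 was taken from curve fitting of the serial dilutions.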

Structure (SMILES) | GI50 [1] [nM] | IC50 (PI3Kα) [nM]
CS(=O)(=O)C1CCN(c2nc3c(N4CCOCC4)nc(-c4cnc(N)nc4)nc3n2CC(F)(F)F)CC1 [Example 57, 5-{8-[4-(Methylsulfonyl)piperidin-1-yl]-6-morpholin-4-yl-9-(2,2,2-trifluoroethyl)-9H-purin-2-yl}pyrimidin-2-amine] | ≤ 5000 | < 10
C[C@@H]1CN(c2nc3c(N4CCOCC4)nc(-c4cnc(N)nc4)nc3n2CC(F)(F)F)CCN1S(C)(=O)=O [Example 61, 5-{8-[(3R)-3-Methyl-4-(methylsulfonyl)piperazin-1-yl]-6-morpholin-4-yl-9-(2,2,2-trifluoroethyl)-9H-purin-2-yl}pyrimidin-2-amine] | ≤ 5000 | < 10
C[C@H]1CN(c2nc3c(N4CCOCC4)nc(-c4cnc(N)nc4)nc3n2CC(F)(F)F)CCN1S(C)(=O)=O [Example 62, 5-{8-[(3S)-3-Methyl-4-(methylsulfonyl)piperazin-1-yl]-6-morpholin-4-yl-9-(2,2,2-trifluoroethyl)-9H-purin-2-yl}pyrimidin-2-amine] | ≤ 5000 | < 10
CS(=O)(=O)N1CCN(c2nc3c(N4CCOCC4)nc(-c4cnc(N)nc4)nc3n2CC(F)F)CC1 [Example 64, 5-{9-(2,2-Difluoro-ethyl)-8-[4-(methylsulfonyl)piperazin-1-yl]-6-morpholin-4-yl-9H-purin-2-yl}pyrimidin-2-amine] | ≤ 5000 | 10 to 20
CC(=O)C(=O)N1CCN(c2nc3c(N4CCOCC4)nc(-c4cnc(N)nc4)nc3n2CC(F)(F)F)CC1 [Example 65, 1-{4-[2-(2-Aminopyrimidin-5-yl)-6-morpholin-4-yl-9-(2,2,2-trifluoroethyl)-9H-purin-8-yl]piperazin-1-yl}-1-oxoacetone] | ≤ 5000 | < 10
CN(C)C(=O)C(=O)N1CCN(c2nc3c(N4CCOCC4)nc(-c4cnc(N)nc4)nc3n2CC(F)(F)F)CC1 [Example 66, 2-{4-[2-(2-Aminopyrimidin-5-yl)-6-morpholin-4-yl-9-(2,2,2-trifluoroethyl)-9H-purin-8-yl]piperazin-1-yl}-N,N-dimethyl-2-oxoacetamide] | ≤ 5000 | < 10
Nc1ncc(-c2nc(N3CCOCC3)c3nc(N4CCN(C(=O)CO)CC4)n(CC(F)(F)F)c3n2)cn1 [Example 67, 2-{4-[2-(2-Aminopyrimidin-5-yl)-6-morpholin-4-yl-9-(2,2,2-trifluoroethyl)-9H-purin-8-yl]piperazin-1-yl}-2-oxoethanol] | ≤ 5000 | < 10
C[C@H](O)C(=O)N1CCN(c2nc3c(N4CCOCC4)nc(-c4cnc(N)nc4)nc3n2CC(F)(F)F)CC1 [Example 68, (2S)-1-{4-[2-(2-Aminopyrimidin-5-yl)-6-morpholin-4-yl-9-(2,2,2-trifluoroethyl)-9H-purin-8-yl]piperazin-1-yl}-1-oxopropan-2-ol] | ≤ 5000 | 10 to 20
C[C@H](O)CC(=O)N1CCN(c2nc3c(N4CCOCC4)nc(-c4cnc(N)nc4)nc3n2CC(F)(F)F)CC1 [Example 69, (2S)-4-{4-[2-(2-Aminopyrimidin-5-yl)-6-morpholin-4-yl-9-(2,2,2-trifluoroethyl)-9H-purin-8-yl]piperazin-1-yl}-4-oxobutan-2-ol] | ≤ 5000 | < 10
C[C@@H](O)CC(=O)N1CCN(c2nc3c(N4CCOCC4)nc(-c4cnc(N)nc4)nc3n2CC(F)(F)F)CC1 [Example 70, (2R)-4-{4-[2-(2-Aminopyrimidin-5-yl)-6-morpholin-4-yl-9-(2,2,2-trifluoroethyl)-9H-purin-8-yl]piperazin-1-yl}-4-oxobutan-2-ol] | ≤ 5000 | 10 to 20
Nc1ncc(-c2nc(N3CCOCC3)c3nc(N4CCN(C=O)CC4)n(CC(F)(F)F)c3n2)cn1 [Example 71, 4-[2-(2-Aminopyrimidin-5-yl)-6-morpholin-4-yl-9-(2,2,2-trifluoroethyl)-9H-purin-8-yl]piperazine-1-carboaldehyde] | ≤ 5000 | < 10
CC[C@H]1CN(c2nc3c(N4CCOCC4)nc(-c4cnc(N)nc4)nc3n2CC(F)(F)F)CCN1S(C)(=O)=O [Example 76, 5-{8-[(3S)-3-Ethyl-4-(methylsulfonyl)piperazin-1-yl]-6-morpholin-4-yl-9-(2,2,2-trifluoroethyl)-9H-purin-2-yl}pyrimidin-2-amine] | ≤ 5000 | < 10
CC(C)Cn1c(N2CCN(C(=O)C[C@H](C)O)CC2)nc2c(N3CCOCC3)nc(-c3cnc(N)nc3)nc21 [Example 82, (2S)-4-{4-[2-(2-Aminopyrimidin-5-yl)-9-isobutyl-6-morpholin-4-yl-9H-purin-8-yl]piperazin-1-yl}-4-oxobutan-2-ol] | ≤ 5000 | 10 to 20
CC(C)Cn1c(N2CCN(C(=O)C[C@@H](C)O)[C@@H](C)C2)nc2c(N3CCOCC3)nc(-c3cnc(N)nc3)nc21 [Example 83, (2R)-4-{(2S)-4-[2-(2-Aminopyrimidin-5-yl)-9-isobutyl-6-morpholin-4-yl-9H-purin-8-yl]-2-methylpiperazin-1-yl}-4-oxobutan-2-ol] | ≤ 5000 | 10 to 20
CC(C)Cn1c(N2CCN(C(=O)C[C@@H](C)O)[C@H](C)C2)nc2c(N3CCOCC3)nc(-c3cnc(N)nc3)nc21 [Example 84, (2R)-4-{(2R)-4-[2-(2-Aminopyrimidin-5-yl)-9-isobutyl-6-morpholin-4-yl-9H-purin-8-yl]-2-methylpiperazin-1-yl}-4-oxobutan-2-ol] | ≤ 5000 | < 10
CC(C)Cn1c(N2CCN(C(=O)C[C@H](C)O)[C@@H](C)C2)nc2c(N3CCOCC3)nc(-c3cnc(N)nc3)nc21 [Example 85, (2S)-4-{(2S)-4-[2-(2-Aminopyrimidin-5-yl)-9-isobutyl-6-morpholin-4-yl-9H-purin-8-yl]-2-methylpiperazin-1-yl}-4-oxobutan-2-ol] | ≤ 5000 | < 10
CC(C)Cn1c(N2CCN(C(=O)C[C@H](C)O)[C@H](C)C2)nc2c(N3CCOCC3)nc(-c3cnc(N)nc3)nc21 [Example 86, (2S)-4-{(2R)-4-[2-(2-Aminopyrimidin-5-yl)-9-isobutyl-6-morpholin-4-yl-9H-purin-8-yl]-2-methylpiperazin-1-yl}-4-oxobutan-2-ol] | ≤ 5000 | < 10
CNc1ncc(-c2nc(N3CCOCC3)c3nc(N4CCN(CC(=O)N(C)C)[C@H](C)C4)n(CC(F)(F)F)c3n2)cn1 [Example 87, N,N-Dimethyl-2-[(2R)-2-methyl-4-{2-[2-(methylamino)pyrimidin-5-yl]-6-morpholin-4-yl-9-(2,2,2-trifluoroethyl)-9H-purin-8-yl}piperazin-1-yl]acetamide] | ≤ 5000 | < 10
CC(=O)N1CCN(c2nc3c(N4CCOCC4)nc(-c4cnc(N)nc4)nc3n2CC2CC2)C[C@@H]1C [Example 96, 5-{8-[(3S)-4-Acetyl-3-methylpiperazin-1-yl]-9-(cyclopropylmethyl)-6-morpholin-4-yl-9H-purin-2-yl}pyrimidin-2-amine] | ≤ 5000 | < 10
CC(=O)N1CCN(c2nc3c(N4CCOCC4)nc(-c4cnc(N)nc4)nc3n2CC2CC2)C[C@H]1C [Example 97, 5-{8-[(3R)-4-Acetyl-3-methylpiperazin-1-yl]-9-(cyclopropylmethyl)-6-morpholin-4-yl-9H-purin-2-yl}pyrimidin-2-amine] | ≤ 5000 | 10 to 20
CC(=O)N1[C@H](C)CN(c2nc3c(N4CCOCC4)nc(-c4cnc(N)nc4)nc3n2CC2CC2)C[C@@H]1C [Example 98, 5-{8-[4-Acetyl-cis-3,5-dimethylpiperazin-1-yl]-9-(cyclopropylmethyl)-6-morpholin-4-yl-9H-purin-2-yl}pyrimidin-2-amine] | ≤ 5000 | < 10
CC(=O)N1CCN(c2nc3c(N4CCOCC4)nc(-c4cnc(N)nc4)nc3n2CC(C)C)C[C@H]1C [Example 99, 5-{8-[(3R)-4-Acetyl-3-methylpiperazin-1-yl]-9-isobutyl-6-morpholin-4-yl-9H-purin-2-yl}pyrimidin-2-amine] | ≤ 5000 | 10 to 20
CC(C)Cn1c(N2CCN(C(=O)[C@H](C)O)[C@H](C)C2)nc2c(N3CCOCC3)nc(-c3cnc(N)nc3)nc21 [Example 103, (2S)-1-{(2R)-4-[2-(2-Aminopyrimidin-5-yl)-9-isobutyl-6-morpholin-4-yl-9H-purin-8-yl]-2-methylpiperazin-1-yl}-1-oxopropan-2-ol] | ≤ 5000 | 10 to 20
CC(C)Cn1c(N2CCN(C(=O)[C@H](C)O)[C@@H](C)C2)nc2c(N3CCOCC3)nc(-c3cnc(N)nc3)nc21 [Example 104, (2S)-1-{(2S)-4-[2-(2-Aminopyrimidin-5-yl)-9-isobutyl-6-morpholin-4-yl-9H-purin-8-yl]-2-methylpiperazin-1-yl}-1-oxopropan-2-ol] | ≤ 5000 | 10 to 20
CNc1ncc(-c2nc(N3CCOCC3)c3nc(N4CCN(S(C)(=O)=O)[C@@H](C)C4)n(CC(F)(F)F)c3n2)cn1 [Example 105, N-Methyl-5-{8-[(3S)-3-methyl-4-(methylsulfonyl)piperazin-1-yl]-6-morpholin-4-yl-9-(2,2,2-trifluoroethyl)-9H-purin-2-yl}pyrimidin-2-amine] | ≤ 5000 | < 10
CNc1ncc(-c2nc(N3CCOCC3)c3nc(N4CCN(S(C)(=O)=O)[C@H](C)C4)n(CC(F)(F)F)c3n2)cn1 [Example 106, N-Methyl-5-{8-[(3R)-3-methyl-4-(methylsulfonyl)piperazin-1-yl]-6-morpholin-4-yl-9-(2,2,2-trifluoroethyl)-9H-purin-2-yl}pyrimidin-2-amine] | ≤ 5000 | < 10

From patent US8309546B2, “Morpholinopurine derivatives” (Daiichi Sankyo Company, Limited, priority 2008, dated 2012)
